Data reported in PubChem BioAssay AID248 (DTP/NCI, 2004).
Where “and” joins values, the source holds several entries; their conditions need not be identical. Equal entries are not always repeated. Inconclusive results and toxic doses are left out.

Tested on: L1210 leukemia ip in BDF1 mice, survival T/C
Assay: NCI In Vivo Anticancer Drug Screen. Data for tumor model L1210 Leukemia (intraperitoneal) in B6D2F1 (BDF1) mice
Details: endpoint: mean survival time, higher = longer survival
How it was run: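 In this screen, tumor-bearing mice given compound are compared to those given vehicle, and their survival values are reported as a treated-to-control quotient.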

[1] = dose: 100.0 mg/kg/injection, schedule: Q04DX003 (ip), vehicle: saline
[2] = dose: 200.0 mg/kg/injection, schedule: Q04DX003 (ip), vehicle: saline
[3] = dose: 400.0 mg/kg/injection, schedule: Q04DX003 (ip), vehicle: saline
[4] = dose: 100.0 mg/kg/injection, schedule: Q04DX003 (ip), vehicle: saline with Tween-80
[5] = dose: 200.0 mg/kg/injection, schedule: Q04DX003 (ip), vehicle: saline with Tween-80
[6] = dose: 400.0 mg/kg/injection, schedule: Q04DX003 (ip), vehicle: saline with Tween-80
[7] = dose: 100.0 mg/kg/injection, schedule: Q01DX009 (ip), vehicle: Klucel (hydroxypropylcellulose) (HPC)
[8] = dose: 200.0 mg/kg/injection, schedule: Q01DX009 (ip), vehicle: Klucel (hydroxypropylcellulose) (HPC)
[9] = dose: 400.0 mg/kg/injection, schedule: Q01DX009 (ip), vehicle: Klucel (hydroxypropylcellulose) (HPC)
[10] = dose: 20.0 mg/kg/injection, schedule: Q01DX009 (ip), vehicle: saline

CC1=CC(=O)C=C(C(C)C)/C1=C(\c1ccccc1C(=O)O)c1c(C)cc(OP(=O)(O)O)cc1C(C)C
T/C (dose: 100.0 mg/kg/injection, schedule: Q01DX009 (ip), vehicle: saline): 103 % of control
T/C [1]: 106 % of control
T/C (dose: 200.0 mg/kg/injection, schedule: Q01DX009 (ip), vehicle: saline): 102 % of control
T/C [2]: 97 % of control
T/C (dose: 400.0 mg/kg/injection, schedule: Q01DX009 (ip), vehicle: saline): 100 % of control
T/C [3]: 98 % of control

CC1C2CCC(C2)C(C)C1Br (stereo not given)
T/C (dose: 100.0 mg/kg/injection, schedule: Q01DX009 (ip), vehicle: other): 99 % of control
T/C (dose: 100.0 mg/kg/injection, schedule: Q04DX003 (ip), vehicle: other): 102 % of control
T/C (dose: 200.0 mg/kg/injection, schedule: Q01DX009 (ip), vehicle: other): 96 % of control
T/C (dose: 200.0 mg/kg/injection, schedule: Q04DX003 (ip), vehicle: other): 102 % of control
T/C (dose: 400.0 mg/kg/injection, schedule: Q01DX009 (ip), vehicle: other): 96 % of control
T/C (dose: 400.0 mg/kg/injection, schedule: Q04DX003 (ip), vehicle: other): 109 % of control

[O-][N+](=Nc1ccc(Cl)cc1)c1ccc(Cl)cc1
T/C (dose: 100.0 mg/kg/injection, schedule: Q01DX001 (ip), vehicle: gum acacia): 92 % of control
T/C (dose: 100.0 mg/kg/injection, schedule: Q04DX003 (ip), vehicle: gum acacia): 97 % of control
T/C (dose: 200.0 mg/kg/injection, schedule: Q01DX001 (ip), vehicle: gum acacia): 93 % of control
T/C (dose: 200.0 mg/kg/injection, schedule: Q04DX003 (ip), vehicle: gum acacia): 87 % of control
T/C (dose: 400.0 mg/kg/injection, schedule: Q01DX001 (ip), vehicle: gum acacia): 92 % of control
T/C (dose: 400.0 mg/kg/injection, schedule: Q04DX003 (ip), vehicle: gum acacia): 91 % of control

Cc1ccc(S(=O)(=O)NNC(=O)C2(C)CC2(C)C(=O)O)cc1 (stereo not given)
T/C (dose: 100.0 mg/kg/injection, schedule: Q01DX001 (ip), vehicle: Klucel (hydroxypropylcellulose) (HPC)): 100 % of control
T/C (dose: 100.0 mg/kg/injection, schedule: Q04DX003 (ip), vehicle: Klucel (hydroxypropylcellulose) (HPC)): 91 % of control
T/C [4]: 96 % of control
T/C (dose: 200.0 mg/kg/injection, schedule: Q01DX001 (ip), vehicle: Klucel (hydroxypropylcellulose) (HPC)): 93 % of control
T/C (dose: 200.0 mg/kg/injection, schedule: Q04DX003 (ip), vehicle: Klucel (hydroxypropylcellulose) (HPC)): 89 % of control
T/C [5]: 93 % of control
T/C (dose: 400.0 mg/kg/injection, schedule: Q01DX001 (ip), vehicle: Klucel (hydroxypropylcellulose) (HPC)): 101 % of control
T/C (dose: 400.0 mg/kg/injection, schedule: Q04DX003 (ip), vehicle: Klucel (hydroxypropylcellulose) (HPC)): 100 % of control
T/C [6]: 86 % of control

CC(=O)OCC1OC(N2C(=O)/C(=C/c3ccc(Br)s3)SC2=S)C(OC(C)=O)C(OC(C)=O)C1OC(C)=O (stereo not given)
T/C (dose: 25.0 mg/kg/injection, schedule: Q01DX005 (ip), vehicle: other): 94 % of control
T/C (dose: 50.0 mg/kg/injection, schedule: Q01DX005 (ip), vehicle: other): 94 % of control
T/C (dose: 100.0 mg/kg/injection, schedule: Q01DX005 (ip), vehicle: other): 94 % of control

COc1ccc2c(CSc3ncnc4nc[nH]c34)cc(=O)oc2c1
T/C (dose: 200.0 mg/kg/injection, schedule: Q04DX002 (ip), vehicle: Klucel (hydroxypropylcellulose) (HPC)): 94 % of control
T/C (dose: 400.0 mg/kg/injection, schedule: Q04DX002 (ip), vehicle: Klucel (hydroxypropylcellulose) (HPC)): 94 % of control

COc1cccc(OC)c1OC(=O)Nc1ccccc1F
T/C [7]: 105 % of control
T/C [8]: 106 % of control
T/C [9]: 106 % of control

O=C(O)c1cccc([N+](=O)[O-])c1C(=O)c1ccccc1
T/C [4]: 95 % of control
T/C [5]: 97 % of control
T/C [6]: 93 % of control

CCOP(=O)(N1CC1(C)C)N1CC1(C)C (stereo not given)
T/C (dose: 1.0 mg/kg/injection, schedule: Q01DX009 (ip), vehicle: saline): 100 % of control
T/C (dose: 2.0 mg/kg/injection, schedule: Q01DX009 (ip), vehicle: saline): 105 % of control
T/C (dose: 4.0 mg/kg/injection, schedule: Q01DX009 (ip), vehicle: saline): 110 % of control
T/C [10]: 161 % of control
T/C (dose: 25.0 mg/kg/injection, schedule: Q01DX001 (ip), vehicle: other): 209 % of control
T/C (dose: 30.0 mg/kg/injection, schedule: Q01DX009 (ip), vehicle: saline): 209 % of control
T/C (dose: 50.0 mg/kg/injection, schedule: Q01DX001 (ip), vehicle: other): 201 % of control
T/C (dose: 52.0 mg/kg/injection, schedule: Q01DX009 (ip), vehicle: Klucel (hydroxypropylcellulose) (HPC)): 177 % of control
T/C (dose: 53.0 mg/kg/injection, schedule: Q01DX001 (ip), vehicle: saline): 152 % of control
T/C (dose: 80.0 mg/kg/injection, schedule: Q01DX001 (ip), vehicle: other): 151 % of control
T/C (dose: 80.0 mg/kg/injection, schedule: Q01DX001 (ip), vehicle: saline): 152 % of control
T/C (dose: 80.0 mg/kg/injection, schedule: Q01DX009 (ip), vehicle: saline): 91 % of control
T/C (dose: 120.0 mg/kg/injection, schedule: Q01DX001 (ip), vehicle: other): 162 % of control
T/C (dose: 120.0 mg/kg/injection, schedule: Q01DX001 (ip), vehicle: saline): 273 % of control
T/C (dose: 177.0 mg/kg/injection, schedule: Q01DX001 (ip), vehicle: saline): 174 % of control
T/C (dose: 180.0 mg/kg/injection, schedule: Q01DX001 (ip), vehicle: other): 224 % of control
T/C (dose: 200.0 mg/kg/injection, schedule: Q01DX001 (ip), vehicle: other): 223 % of control
T/C (dose: 400.0 mg/kg/injection, schedule: Q01DX001 (ip), vehicle: other): 226 % of control

Cc1cccc(Cl)c1NC(=O)COc1ccc(Cl)cc1
T/C [7]: 102 % of control
T/C [8]: 89 % of control
T/C [9]: 93 % of control

C1CN1P1(N2CC2)=NP(N2CC2)(N2CC2)=NP(N2CC2)(N2CC2)=N1
T/C (dose: 10.0 mg/kg/injection, schedule: Q01DX009 (ip), vehicle: saline): 159 % of control
T/C [10]: 104 % of control
T/C (dose: 75.0 mg/kg/injection, schedule: Q01DX001 (ip), vehicle: saline): 162 % of control

OCCc1nn[nH]n1
T/C [1]: 104 % of control
T/C [2]: 93 % of control
T/C [3]: 98 % of control

CC(=O)SCC(C)SC(C)=O (stereo not given)
T/C (dose: 12.5 mg/kg/injection, schedule: Q04DX002 (ip), vehicle: saline with Tween-80): 93 % of control
T/C (dose: 25.0 mg/kg/injection, schedule: Q04DX002 (ip), vehicle: saline with Tween-80): 98 % of control
T/C (dose: 50.0 mg/kg/injection, schedule: Q04DX002 (ip), vehicle: saline with Tween-80): 93 % of control

S=C(S)NCCNC(=S)S
T/C [4]: 93 % of control
T/C [1]: 95 % of control
T/C [5]: 90 % of control
T/C [2]: 97 % of control
T/C [6]: 87 % of control
T/C [3]: 101 % of control

CCN(CC)CCNCCN
T/C (dose: 12.5 mg/kg/injection, schedule: Q01DX009 (ip), vehicle: saline): 107 % of control
T/C (dose: 25.0 mg/kg/injection, schedule: Q01DX009 (ip), vehicle: saline): 111 % of control
T/C (dose: 50.0 mg/kg/injection, schedule: Q01DX009 (ip), vehicle: saline): 101 % of control and 102 % of control
T/C [1]: 94 % of control
T/C [2]: 96 % of control

CCCCC(=O)N1CCCC(C)C1 (stereo not given)
T/C (dose: 100.0 mg/kg/injection, schedule: Q04DX002 (ip), vehicle: Klucel (hydroxypropylcellulose) (HPC)): 105 % of control

O=C(Nc1ccc(C2=NCCN2)cc1)c1ccc(Cl)c(C(=O)Nc2ccc(C3=NCCN3)cc2)c1
T/C (dose: 2.0 mg/kg/injection, schedule: Q01DX Z (ip), vehicle: carboxymethylcellulose (CMC)): 97 % of control
T/C (dose: 3.75 mg/kg/injection, schedule: Q01DX Z (ip), vehicle: water): 102 % of control
T/C (dose: 4.0 mg/kg/injection, schedule: Q01DX Z (ip), vehicle: carboxymethylcellulose (CMC)): 98 % of control
T/C (dose: 7.5 mg/kg/injection, schedule: Q01DX Z (ip), vehicle: carboxymethylcellulose (CMC)): 106 % of control
T/C (dose: 7.5 mg/kg/injection, schedule: Q01DX Z (ip), vehicle: water): 102 % of control
T/C (dose: 15.0 mg/kg/injection, schedule: Q01DX Z (ip), vehicle: carboxymethylcellulose (CMC)): 95 % of control
T/C (dose: 15.0 mg/kg/injection, schedule: Q01DX Z (ip), vehicle: saline): 115 % of control and 92 % of control
T/C (dose: 15.0 mg/kg/injection, schedule: Q01DX Z (ip), vehicle: water): 106 % of control
T/C (dose: 30.0 mg/kg/injection, schedule: Q01DX Z (ip), vehicle: saline): 118 % of control and 97 % of control
T/C (dose: 60.0 mg/kg/injection, schedule: Q01DX Z (ip), vehicle: saline): 100 % of control
